US6506707B1, “Herbicidal compositions containing plant essential oils and mixtures or blends thereof” (Ecosmart Technologies, Inc., priority 1999, dated 2003)

Columns and labels:
dandelion = experiment: Direct droplet bioassay on dandelion (Example 6); format: in vivo; settings: individual oils, applied in one microliter of methanol
Description: Various plant essential oils were tested for toxicity (herbicidal action) against dandelion. Individual oils were ranked for relative toxicity using the direct droplet bioassay on the dandelion. EC50 values (amount producing 50% of maximum effect) were recorded in micrograms (all applied in one microliter of methanol) and plotted on a graph for comparison.

[1] = system: greenhouse-grown cabbage leaves; experiment: Direct droplet bioassay on cabbage leaves (Examples 5 and 7); format: in vivo; settings: applied in one microliter of methanol; for EC50 (amount producing 50% of maximum effect): cabbage leaves; for relative toxicity to cabbage leaves (ranking by EC50): individual oils
Description: Various plant essential oils were tested for toxicity (herbicidal action) against greenhouse-grown cabbage leaves. Individual oils were ranked for relative toxicity using the direct droplet bioassay on the cabbage leaves.
Various plant essential oils were tested for synergistic effects on the toxicity (herbicidal action) against greenhouse-grown cabbage leaves. Individual oils were ranked for relative toxicity using the direct droplet bioassay on the cabbage leaves, and compared to mixtures at different ratios. […]

| SMILES | relative toxicity to dandelion (ranking by EC50) (dandelion) | EC50 (amount producing 50% of maximum effect) [1] [micrograms] | relative toxicity to cabbage leaves (ranking by EC50) [1] |
| --- | --- | --- | --- |
| CC12CCC(CC1)C(C)(C)O2 [cineole, Cineole] | most toxic |  |  |
| C=CCc1ccc(O)c(OC)c1 [Eugenol] |  | 46.1 |  |
| Cc1ccc(C(C)C)c(O)c1 [white thymol, White Thymol] | most toxic |  | most toxic |
| Cc1ccc(C(C)C)c(O)c1 [Thymol] |  | 10.7 |  |
| COC(=O)c1ccccc1O [methyl salicylate, Methyl Salicylate] | most toxic |  | most toxic |
| CCC(=O)OCCc1ccccc1 [Phenethyl Propionate (PEP), Phenethyl Propionate] |  | 158.8 |  |
| O=C/C=C/c1ccccc1 [cinnamic aldehyde, Cinnamic Aldehyde] | most toxic |  | most toxic |
| CC(C)=CCCC(C)CC=O (stereo not drawn) [citronellal, Citronellal] | most toxic |  | most toxic |
